Measurements published in US9636365B2, “Antibacterial food composition” (NUTRIVERCELL, priority 2009, dated 2017).
Like-named read-outs stand apart in the source and are kept apart here.

Assays:
[1] = system: E. coli strain resistant to quinolones (OFX R), NECS864598; experiment: MIC, dilution in liquid medium (CA-SFM), second OFX R strain; type: cell-based, Escherichia coli; conditions: added composition at sub-inhibitory concentration (120 or 250 mg/L), 18 h, 37° C.
Excerpt: (§1) Six strains of Escherichia coli of different origins (cystitises, acute pyelonephritises, urinary chronic carriage), of different sensitivities to the main antibiotics customarily used in urinary infections and with different virulences, were selected from the strain library of the laboratory of the INSERM Espri 26 team: • 2 strains sensitive to ATBs: NECS892841 and NECS30090 • 2 strains resistant to quinolones: NECS858785 and NECS864598 • 2 strains secreting BLSE: NEC892420 and NEC118564
(§2) Three compositions were evaluated: • a composition comprising propolis powder on maltose dextrin • a composition comprising propolis powder on maltose dextrin and PACs of type A • a composition comprising maltose dextrin
(§3) Three antibiotics were studied: • ofloxacin • ceftriaxone • cefixime
(§4) The whole of the tubes were put into an oven at 37° C. overnight without stirring.

[2] = system: E. coli strain secreting BLSE, NEC118564; experiment: MIC, dilution in liquid medium (CA-SFM), second BLSE strain; type: cell-based, Escherichia coli; conditions: added composition at sub-inhibitory concentration (120 or 250 mg/L), 18 h, 37° C.
Excerpt: as §1, §2, §3, §4

[3] = system: E. coli strain resistant to quinolones (OFX R), NECS858785; experiment: MIC, dilution in liquid medium (CA-SFM), first OFX R strain; type: cell-based, Escherichia coli; conditions: added composition at sub-inhibitory concentration (120 or 250 mg/L), 18 h, 37° C.
Excerpt: as §1, §2, §3, §4

[4] = system: E. coli strain sensitive to ATBs (S), NECS892841; experiment: MIC, dilution in liquid medium (CA-SFM), first S strain; type: cell-based, Escherichia coli; conditions: added composition at sub-inhibitory concentration (120 or 250 mg/L), 18 h, 37° C.
Excerpt: as §1, §2, §3, §4

[5] = system: E. coli strain sensitive to ATBs (S), NECS30090; experiment: MIC, dilution in liquid medium (CA-SFM), second S strain; type: cell-based, Escherichia coli; conditions: second S strain row; added composition at sub-inhibitory concentration (120 or 250 mg/L); 18 h, 37° C.
Excerpt: as §1, §2, §3, §4

[6] = system: E. coli strain secreting BLSE, NEC892420; experiment: MIC, dilution in liquid medium (CA-SFM), first BLSE strain; type: cell-based, Escherichia coli; conditions: added composition at sub-inhibitory concentration (120 or 250 mg/L), 18 h, 37° C.
Excerpt: as §1, §2, §3, §4

[7] = Quantification of propolis polyphenols in human urines after ingesting the composition; type: in vivo
Method: Two healthy volunteers of more than 18 years of age, with efficient contraception and having followed a normal diet, followed a regimen comprising the ingestion of gelatin capsules according to the composition of Example 3.
Two regimens were followed: • taking 6 gelatin capsules, • taking 8 gelatin capsules.
The taking of gelatin capsules was carried out at 8.00 am and the urines were collected by micturition in a sterile flask before ingestion, 1-6 hours after ingestion, 12 hours after ingestion and 24 hours after ingestion.
The collected urines are hydrolyzed by enzymatic hydrolysis (glucuronidase and sulfatase), and the polyphenols are then extracted and purified on Sep-Pack.
The polyphenols of propolis such as pinocembrin and galangin are then characterized and assayed.

| SMILES | MIC of the antibiotic [1] [µg/mL] | MIC of the antibiotic [2] [µg/mL] | MIC of the antibiotic [3] [µg/mL] | MIC of the antibiotic [4] [µg/mL] | MIC of the antibiotic [5] [µg/mL] | MIC of the antibiotic [6] [µg/mL] | amount in human urines ([7]; 1-6 h after ingestion of 6 gelatin capsules of Example 3, urine hydrolyzed) [mg/L] | concentration at 12 h ([7]; human, in vivo, 12 h after ingestion of 6 gelatin capsules of Example 3, read-out: amount in human urines) [ng/mL] | concentration at 24 h ([7]; human, in vivo, 24 h after ingestion of 6 gelatin capsules of Example 3, read-out: amount in human urines) [ng/mL] | concentration at 24 h ([7]; human, in vivo, 24 h after ingestion of 8 gelatin capsules of Example 3, read-out: amount in human urines) [ng/mL] | amount in human urines ([7]; human, in vivo) [mg/L] | concentration at 12 h ([7]; human, in vivo, amount in human urines) [ng/mL] |
| --- | --- | --- | --- | --- | --- | --- | --- | --- | --- | --- | --- | --- |
| C=CC1=C(C(=O)O)N2C(=O)[C@@H](NC(=O)/C(=N\OCC(=O)O)c3csc(N)n3)[C@H]2SC1 [Cefixime, cefixime] | 1 | 8 | 0.5 | 1 | 0.5 | 16 |  |  |  |  |  |  |
| CO/N=C(\C(=O)N[C@@H]1C(=O)N2C(C(=O)O)=C(CSc3nc(=O)c(O)nn3C)CS[C@H]12)c1csc(N)n1 [Ceftriaxon, ceftriaxone] | 0.5 | 32 | 0.25 | 1 | 0.5 | >32 |  |  |  |  |  |  |
| O=c1c(O)c(-c2ccccc2)oc2cc(O)cc(O)c12 [Galangin, galangin] |  |  |  |  |  |  | 0.555 | 291 | 157 | 311 |  |  |
| CC1COc2c(N3CCN(C)CC3)c(F)cc3c(=O)c(C(=O)O)cn1c23 (stereo not drawn) [Ofloxacin, ofloxacin] | 32 | >32 | 2 | 1 | 0.25 | >32 |  |  |  |  |  |  |
| O=C1C[C@@H](c2ccccc2)Oc2cc(O)cc(O)c21 [Pinocembrin, pinocembrin] |  |  |  |  |  |  |  |  |  |  | 3.344 | 1140 |
